Laboratory results from patent US8741894B2, “Arylsulfonamide CCR3 antagonists” (Axikin Pharmaceuticals, Inc., priority 2010, dated 2014).
pKi: −log10 of the molar value.

molecular target: T1, hERG channel (Homo sapiens, UniProt Q12809); experiment: hERG Receptor Binding Assay (125I-BeKm-1, membranes from HEK-293 cells containing transfected hERG channels); conditions: 125I-BeKm-1 0.1 nM final, 1 hr at room temperature
T1 construct: purchased Perkin Elmer RBHERGM400UA; host or cells: HEK-293 cells transfected with hERG (membrane preparation)
T1 sequence (Q12809 whole entry): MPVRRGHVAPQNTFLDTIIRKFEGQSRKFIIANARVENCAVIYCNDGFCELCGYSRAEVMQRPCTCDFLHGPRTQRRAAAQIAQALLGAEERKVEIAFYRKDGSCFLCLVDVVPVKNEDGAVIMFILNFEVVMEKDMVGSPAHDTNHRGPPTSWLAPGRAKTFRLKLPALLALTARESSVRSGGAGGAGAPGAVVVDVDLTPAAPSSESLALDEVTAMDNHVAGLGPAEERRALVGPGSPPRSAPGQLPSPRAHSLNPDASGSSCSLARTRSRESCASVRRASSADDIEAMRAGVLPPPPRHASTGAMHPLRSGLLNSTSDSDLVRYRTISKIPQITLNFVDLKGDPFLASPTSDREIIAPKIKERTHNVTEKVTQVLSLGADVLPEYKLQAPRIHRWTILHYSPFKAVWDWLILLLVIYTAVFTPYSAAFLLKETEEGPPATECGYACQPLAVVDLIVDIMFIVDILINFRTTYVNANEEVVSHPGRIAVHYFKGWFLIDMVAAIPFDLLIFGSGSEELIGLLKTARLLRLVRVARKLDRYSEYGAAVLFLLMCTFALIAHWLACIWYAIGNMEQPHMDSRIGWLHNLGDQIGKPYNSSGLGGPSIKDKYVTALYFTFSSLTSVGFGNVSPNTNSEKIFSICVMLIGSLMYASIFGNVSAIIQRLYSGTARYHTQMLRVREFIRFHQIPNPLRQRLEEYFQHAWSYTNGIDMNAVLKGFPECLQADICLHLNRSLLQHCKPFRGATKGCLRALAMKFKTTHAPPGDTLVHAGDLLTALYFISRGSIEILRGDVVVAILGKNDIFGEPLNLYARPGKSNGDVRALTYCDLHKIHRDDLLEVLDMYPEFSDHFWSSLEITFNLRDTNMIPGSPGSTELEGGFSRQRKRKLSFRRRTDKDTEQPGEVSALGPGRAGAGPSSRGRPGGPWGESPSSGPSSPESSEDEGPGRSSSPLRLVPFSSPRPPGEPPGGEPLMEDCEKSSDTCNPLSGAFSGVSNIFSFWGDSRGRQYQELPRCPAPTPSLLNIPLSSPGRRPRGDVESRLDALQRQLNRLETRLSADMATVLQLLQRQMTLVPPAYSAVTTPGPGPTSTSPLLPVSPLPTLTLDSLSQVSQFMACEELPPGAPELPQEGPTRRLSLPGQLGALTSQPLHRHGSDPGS
Procedure: Medium throughput screening of compounds for interaction with the human Ether-a-go-go related gene (hERG) was performed by modification of equilibrium dissociation assays using 125I-labelled peptide BeKm-1. BeKm-1, a scorpion toxin from the Central Asian scorpion Buthus eupeus, selectively blocks the hERG channel. Angelo, K., et al., 2003, Pflugers Arch.-Eur. J. Physiol., 447: 55-63; Chiu, P J S, et al., J. Pharmacol. Sci., 2004, 95: 311-319. Isolated membrane preparations from HEK-293 cells containing transfected hERG channels (hERG K+ Channel Membrane Target Systems™; Cat #, RBHERGM400UA) (Perkin Elmer, Boston, Mass.) were suspended in assay buffer A at a final concentration of 1:150 v/v. Compounds for screening, and non-radiolabelled BeKm-1, as well as 125I-BeKm-1 radioligand (Perkin Elmer; Cat #, NEX-412; Specific Activity 2,200 Ci/mmol), were also reconstituted in Buffer A. Assay components were incubated in 96-well, round-bottom polypropylene plates in the following ratio:
25 μl compound at appropriate concentrations
25 μl radiolabelled BeKm-1 at 0.8 nM (final concentration of 0.1 nM)
150 μl membrane preparation
The assay was incubated with shaking for 1 hr at room temperature. Subsequently, the well contents were transferred to 96-well filtration plates (GF/C multiwell plates (MultiScreen™ HTS; Millipore, 290 Concord Road, Billerica, Mass. 01821 USA; Cat# MSFBN6B-XX pre-soaked in 0.3% polyethyleneimine; Acros Organics, NJ; Cat#178571000). Unbound radioactivity was removed and the membranes washed 4 times with ice-cold Buffer B, under vacuum. Plates were air-dried and bound radioactivity counted on a Packard Top-Count NXT™ microplate scintillation and luminescence counter (Packard Instrument Co., Downers Grove, Ill.). Equilibrium dissociation was analyzed and IC50 and/or Ki values were calculated using GraphPad Prism 4™ software (GraphPad Software, San Diego, Calif.).
Assay Buffer A: ([…] (MP Biomedicals, LLC; 29525 Fountain Parkway, Solon Ohio, 441389; Cat #1688449) in water, pH 7.2 with 1M Tris (Fisher Chemicals, Fair Lawn, N.J. 07410; Cat #, BP-1757-500); 100 μM KCl (Fisher Chemicals, Cat #, BP-366-500); 0.1% BSA (Sigma Aldrich, 3050 Spruce Street, St. Louis, Mo. 63103; Cat #, A3059). Assay Buffer B: 20 mM Tris HCl, pH 7.3; 150 mM NaCl (Fisher Chemicals; Cat #, S78449).
The hERG binding assay results are summarized in Table 2, wherein A represents no measured activity (i.e., a value greater than 100 μM), and B represents a value greater than 10 μM but less than 100 μM and C represents a value less than 10 μM.

Row | SMILES | pKi
1 | CC(=O)NC1CCN(S(=O)(=O)c2cc(C#N)ccc2Oc2cc(Cl)cc(Cl)c2)CC1 [Compound 5, N-(1-(5-cyano-2-(3,5-dichlorophenoxy)phenylsulfonyl)piperidin-4-yl)acetamide] | < 4.00
2 | N#Cc1ccc(Oc2cc(Cl)cc(Cl)c2)c(S(=O)(=O)N2CCC(NC(=O)NCc3ccco3)CC2)c1 [Compound 16, 1-(1-(5-cyano-2-(3,5-dichlorophenoxy)phenylsulfonyl)piperidin-4-yl)-3-(furan-2-ylmethyl)urea] | < 4.00
3 | CC(C)NC(=S)NC1CCN(S(=O)(=O)c2cc(C#N)ccc2Oc2cc(Cl)cc(Cl)c2)CC1 [Compound 17, 1-(1-(5-cyano-2-(3,5-dichlorophenoxy)phenylsulfonyl)piperidin-4-yl)-3-isopropylthiourea] | < 4.00
4 | C=CCNC(=O)NC1CCN(S(=O)(=O)c2cc(C#N)ccc2Oc2cc(Cl)cc(Cl)c2)CC1 [Compound 13, 1-allyl-3-(1-(5-cyano-2-(3,5-dichlorophenoxy)phenylsulfonyl)piperidin-4-yl)urea] | < 4.00
5 | Cc1ccc(C(=O)NC2CCN(S(=O)(=O)c3cc(C#N)ccc3Oc3cc(Cl)cc(Cl)c3)CC2)cc1 [Compound 10, N-(1-(5-cyano-2-(3,5-dichlorophenoxy)phenylsulfonyl)piperidin-4-yl)-4-methylbenzamide] | < 4.00
6 | N#Cc1ccc(Oc2cc(Cl)cc(Cl)c2)c(S(=O)(=O)N2CCC(NC(=O)CCCCl)CC2)c1 [Compound 8, 4-chloro-N-(1-(5-cyano-2-(3,5-dichlorophenoxy)phenylsulfonyl)piperidin-4-yl)butanamide] | < 4.00
7 | CC(C)NC(=O)NC1CCN(S(=O)(=O)c2cc(C#N)ccc2Oc2cc(Cl)cc(Cl)c2)CC1 [Compound 12, 1-(1-(5-cyano-2-(3,5-dichlorophenoxy)phenylsulfonyl)piperidin-4-yl)-3-isopropylurea] | < 4.00
8 | CSCCCNC(=S)NC1CCN(S(=O)(=O)c2cc(C#N)ccc2Oc2cc(Cl)cc(Cl)c2)CC1 [Compound 18, 1-(1-(5-cyano-2-(3,5-dichlorophenoxy)phenylsulfonyl)piperidin-4-yl)-3-(3-(methylthio)propyl)thiourea] | < 4.00
9 | N#Cc1ccc(Oc2cc(Cl)cc(Cl)c2)c(S(=O)(=O)N2CCC(NC(=O)c3cccc(F)c3)CC2)c1 [Compound 11, N-(1-(5-cyano-2-(3,5-dichlorophenoxy)phenylsulfonyl)piperidin-4-yl)-3-fluorobenzamide] | < 4.00

molecular target: T2, CCR3 receptor (UniProt P51677); experiment: CCR3 Receptor Binding Assay ([125I]-labeled human eotaxin/CCL11 displacement on cells); conditions: 0.1 nM [125I]-labeled human eotaxin/CCL11, 60 min at room temperature
T2 sequence (P51677 1-355): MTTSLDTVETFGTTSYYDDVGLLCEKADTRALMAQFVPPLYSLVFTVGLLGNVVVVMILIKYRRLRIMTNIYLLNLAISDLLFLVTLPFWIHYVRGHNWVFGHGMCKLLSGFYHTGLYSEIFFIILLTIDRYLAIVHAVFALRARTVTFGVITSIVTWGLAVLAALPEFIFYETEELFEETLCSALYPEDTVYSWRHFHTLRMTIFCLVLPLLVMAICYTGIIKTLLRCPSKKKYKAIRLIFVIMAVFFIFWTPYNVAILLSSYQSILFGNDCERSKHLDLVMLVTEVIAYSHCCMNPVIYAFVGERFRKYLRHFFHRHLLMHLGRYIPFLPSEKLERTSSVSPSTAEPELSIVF
Procedure: Cells were washed once with PBS and resuspended in a binding buffer (25 mM HEPES pH 7.6, 5 mM MgCl2, 1 mM CaCl2, 0.5% BSA, 0.1% NaN3). […] of cell suspension (2×10^5 cells/well) and 0.1 nM [^125I]-labeled human eotaxin/CCL11 (2000 Ci/mmol specific activity) were mixed in a 96-well U-bottom polypropylene plate, and incubated for 60 min at room temperature for the binding reaction. The cell suspension was then transferred to a filtration plate (#MAFB, Millipore), and washed 3 times with the binding buffer containing 0.5 M NaCl, scintillant added, and the radioactivity was counted on a TopCount (Packard). For the determination of non-specific binding, the cell suspension and [^125I]-labeled human eotaxin/CCL11 were incubated in the presence of 500 nM of unlabeled human eotaxin/CCL11. See, lino et al., “Molecular cloning and functional characterization of cynomolgus monkey (Macaca fascicularis) CC chemokine receptor, CCR3,” Cytokine 2002, 19, 276-286.
The biological results are summarized in Table 1, wherein A represents a value no greater than 50 nM, and B represents a value greater than 50 nM but no greater than 500 nM, C represents a value greater than 500 nM but no greater than 5 μM; and D represents a value greater than 5 μM.

Row | SMILES | pKi
10 | N#Cc1ccc(Oc2cc(Cl)cc(Cl)c2)c(S(=O)(=O)NC2CCN(S(=O)(=O)c3cccc(F)c3)CC2)c1 [Compound 32, 5-cyano-2-(3,5-dichlorophenoxy)-N-(1-(3-fluorophenylsulfonyl)piperidin-4-yl)benzenesulfonamide] | < 5.30
11 | Cc1ccc(S(=O)(=O)N2CCC(NS(=O)(=O)c3cc(C#N)ccc3Oc3cc(C)cc(C)c3)CC2)cc1 [Compound 31, 5-cyano-2-(3,5-dimethylphenoxy)-N-(1-tosylpiperidin-4-yl)benzenesulfonamide] | < 5.30
12 | N#Cc1ccc(Oc2cc(Cl)cc(Cl)c2)c(S(=O)(=O)N2CCC(NC(=O)NCCN3CCSCC3)CC2)c1 [Compound 47, 1-(1-(5-cyano-2-(3,5-dichlorophenoxy)phenylsulfonyl)piperidin-4-yl)-3-(2-thiomorpholinoethyl)urea] | ≥ 7.30
13 | [2H]c1c([2H])c(Oc2cc(Cl)cc(Cl)c2)c(S(=O)(=O)N2CCC(NC(=O)NCCN3C([2H])([2H])C([2H])([2H])OC([2H])([2H])C3([2H])[2H])CC2)c([2H])c1C#N [Compound 54, 1-(1-(5-cyano-3,4,6-trideutero-2-(3,5-dichlorophenoxy)phenylsulfonyl)piperidin-4-yl)-3-(2-(2,2,3,3,5,5,6,6-octadeutero-morpholino)ethyl)urea] | ≥ 7.30
14 | N#Cc1ccc(Oc2cc(Cl)cc(Cl)c2)c(S(=O)(=O)N2CCC(NC(=O)NCCN3CCOCC3)CC2)c1 [Compound 22, 1-(1-(5-cyano-2-(3,5-dichlorophenoxy)phenylsulfonyl)piperidin-4-yl)-3-(2-morpholinoethyl)urea] | ≥ 7.30
15 | CC(C)C(=O)N1CCC(NS(=O)(=O)c2cc(C#N)ccc2Oc2cc(Cl)cc(Cl)c2)CC1 [Compound 39] | < 5.30
16 | N#Cc1ccc(Oc2cc(Cl)cc(Cl)c2)c(S(=O)(=O)NC2CCN(C(=O)Nc3cccc(F)c3)CC2)c1 [Compound 44] | 6.30 to 7.30
17 | N#Cc1ccc(Oc2cc(Cl)cc(Cl)c2)c(S(=O)(=O)NC2CCN(C(=O)c3ccc(C(F)(F)F)cc3)CC2)c1 [Compound 34] | < 5.30
18 | N#Cc1ccc(Oc2cc(Cl)cc(Cl)c2)c(S(=O)(=O)NC2CCN(C(=O)c3ccccc3)CC2)c1 [Compound 35] | < 5.30
19 | Cc1cc(C)cc(Oc2ccc(C#N)cc2S(=O)(=O)NC2CCN(S(C)(=O)=O)CC2)c1 [Compound 37] | < 5.30
20 | N#Cc1ccc(Oc2cc(Cl)cc(Cl)c2)c(S(=O)(=O)N2CCC(NC(=O)NCCN3CCCCC3)CC2)c1 [Compound 48, 1-(1-(5-cyano-2-(3,5-dichlorophenoxy)phenylsulfonyl)piperidin-4-yl)-3-(2-(piperidin-1-yl)ethyl)urea] | ≥ 7.30
21 | CN1CCN(CCNC(=O)NC2CCN(S(=O)(=O)c3cc(C#N)ccc3Oc3cc(Cl)cc(Cl)c3)CC2)CC1 [Compound 51, 1-(1-(5-cyano-2-(3,5-dichlorophenoxy)phenylsulfonyl)piperidin-4-yl)-3-(2-(4-methylpiperazin-1-yl)ethyl)urea] | ≥ 7.30
22 | Cc1cc(C)cc(Sc2ccc(C#N)cc2S(=O)(=O)NC2CCN(C(=O)OC(C)(C)C)CC2)c1 [Compound 23] | 5.30 to 6.30
23 | N#Cc1ccc(Oc2cc(Cl)cc(Cl)c2)c(S(=O)(=O)N2CCC(NC(=O)NCCN3CCNCC3)CC2)c1 [Compound 49, 1-(1-(5-cyano-2-(3,5-dichlorophenoxy)phenylsulfonyl)piperidin-4-yl)-3-(2-(piperazin-1-yl)ethyl)urea] | ≥ 7.30
24 | N#Cc1ccc(Oc2cc(Cl)cc(Cl)c2)c(S(=O)(=O)N2CCC(NC(=O)NCCN3CCC(F)CC3)CC2)c1 [Compound 50, 1-(1-(5-cyano-2-(3,5-dichlorophenoxy)phenylsulfonyl)piperidin-4-yl)-3-(2-(4-fluoropiperidin-1-yl)ethyl)urea] | ≥ 7.30
25 | CC(C)(C)OC(=O)N1CCC(NS(=O)(=O)c2cc(C#N)ccc2Sc2cc(Cl)cc(Cl)c2)CC1 [Compound 45] | 5.30 to 6.30
26 | [2H]c1c([2H])c(Oc2cc(Cl)cc(Cl)c2)c(S(=O)(=O)N2CCC(NC(=O)NCC=C)CC2)c([2H])c1C#N [Compound 53, 1-allyl-3-(1-(5-cyano-3,4,6-trideutero-2-(3,5-dichlorophenoxy)phenylsulfonyl)piperidin-4-yl)urea] | ≥ 7.30
